The source of these data is patent US20100029702A1, “Method For Identification of Compound Having Anti-Anxiety Effect” (priority 2006, published 2010).

In the assay the target is T1, protein encoded by ph01207 (Homo sapiens, UniProt O60241, DEL308-362).
T1 construct: expressed in transfected cells; host or cells: CHO-K1 (HA-ph01207#10-6, FERM BP-10101), T8HA-attR/pCINeo
T1 sequence (O60241 with tags, fused parts or gaps DEL308-362): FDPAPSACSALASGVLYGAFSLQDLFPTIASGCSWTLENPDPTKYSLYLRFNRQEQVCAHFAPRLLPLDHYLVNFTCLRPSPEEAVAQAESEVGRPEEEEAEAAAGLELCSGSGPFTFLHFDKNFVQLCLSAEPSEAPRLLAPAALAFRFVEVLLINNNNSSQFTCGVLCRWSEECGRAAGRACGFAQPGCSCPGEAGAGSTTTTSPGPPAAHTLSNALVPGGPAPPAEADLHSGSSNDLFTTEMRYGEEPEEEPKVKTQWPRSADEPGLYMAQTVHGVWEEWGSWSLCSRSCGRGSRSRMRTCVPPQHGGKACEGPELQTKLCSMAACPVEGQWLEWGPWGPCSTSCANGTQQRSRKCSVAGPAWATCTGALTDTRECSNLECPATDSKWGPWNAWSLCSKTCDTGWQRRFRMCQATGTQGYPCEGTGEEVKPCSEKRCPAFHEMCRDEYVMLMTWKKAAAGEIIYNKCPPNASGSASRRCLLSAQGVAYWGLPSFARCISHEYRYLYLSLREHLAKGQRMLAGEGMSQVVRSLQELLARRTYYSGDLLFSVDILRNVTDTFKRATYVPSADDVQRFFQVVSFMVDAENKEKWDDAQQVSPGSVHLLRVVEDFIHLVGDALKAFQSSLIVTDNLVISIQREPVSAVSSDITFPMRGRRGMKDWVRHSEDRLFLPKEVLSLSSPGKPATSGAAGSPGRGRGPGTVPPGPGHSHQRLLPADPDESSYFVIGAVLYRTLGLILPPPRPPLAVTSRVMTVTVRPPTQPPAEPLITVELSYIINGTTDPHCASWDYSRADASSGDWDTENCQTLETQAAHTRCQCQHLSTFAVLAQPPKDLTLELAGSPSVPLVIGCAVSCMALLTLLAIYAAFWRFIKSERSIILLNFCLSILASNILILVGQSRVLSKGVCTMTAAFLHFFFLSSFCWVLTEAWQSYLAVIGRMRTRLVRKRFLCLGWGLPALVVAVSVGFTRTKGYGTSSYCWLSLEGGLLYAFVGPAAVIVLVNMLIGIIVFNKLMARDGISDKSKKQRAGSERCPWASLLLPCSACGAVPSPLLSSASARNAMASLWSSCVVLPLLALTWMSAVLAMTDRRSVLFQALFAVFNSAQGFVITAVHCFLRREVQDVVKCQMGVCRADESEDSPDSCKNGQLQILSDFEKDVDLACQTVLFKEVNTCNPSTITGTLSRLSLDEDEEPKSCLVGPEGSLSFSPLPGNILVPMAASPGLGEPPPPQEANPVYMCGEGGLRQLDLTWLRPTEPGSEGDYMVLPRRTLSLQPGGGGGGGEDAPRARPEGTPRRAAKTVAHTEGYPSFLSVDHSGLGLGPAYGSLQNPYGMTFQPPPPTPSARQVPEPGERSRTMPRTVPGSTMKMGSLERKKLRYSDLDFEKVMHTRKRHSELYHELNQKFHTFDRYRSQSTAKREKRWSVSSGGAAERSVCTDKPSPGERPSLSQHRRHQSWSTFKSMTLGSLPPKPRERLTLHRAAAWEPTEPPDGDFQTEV
The assay is described as follows: Changes in intracellular Ca2+ concentration in HA-ph01207#10-6 cell strain (CHO-K1 stably expressing ph01207). The class given is cell-based. On the procedure: Changes in the intracellular calcium (Ca^2+) concentration induced by CCK-8S (SEQ ID NO: 14), CCK-8NS, or CCK-4 were measured using the cell strains expressing ph01207 prepared in Example 2. The cell strains prepared in Example 2 were eight strains that expressed the protein encoded by ph01207 as FLAG-tag fusion proteins and four strains that expressed the protein encoded by ph01207 as HA-tag fusion proteins. Of these, the HA-ph01207#10-6 cell strain, a strain obtained by cloning one of the cell strains that stably expressed the protein encoded by ph01207 as HA-tag fusion proteins, was used in this example. CCK-8NS was a CCK octapeptide having the same amino acid sequence as that of CCK-8S (SEQ ID NO: 14), but a region from the C terminus to the seventh tyrosine residue was not sulfated. CCK-4 was a tetrapeptide comprising residues from the C terminus to the fourth amino acid of CCK-8S (SEQ ID NO: 14).
The specific method for measuring changes in the intracellular Ca^2+ concentration in the HA-ph01207#10-6 cell strain induced by CCK-8S (SEQ ID NO: 14) and the results are described below. The HA-ph01207#10-6 cell strain was seeded on a 96-well plate (a plate with a black wall and a transparent bottom) at a cell count of 2×10^4/100 μL medium/well and cultured at 37° C. in the presence of 5% CO2. As a medium, DMEM/F12 (Gibco) containing 10% fetal calf serum (Moregate) was used. On the following day, 50 μL of the medium was removed from each well, 50 μL of a loading buffer was added to each well, and the mixture was reacted at room temperature for 1.5 h, so that a fluorescent dye contained in the loading buffer should be taken up into the cell. The loading buffer was prepared by dissolving component A of the FLIPR Calcium 3 Assay Kit (Molecular Device) in a solution obtained by adding 0.1 mL of 500 mM probenecid (Sigma) to 9.9 mL of component B. After reaction, changes over time in the fluorescence intensity in each well after addition of CCK-8S (Peptide Institute, Inc.) were measured using the FLEX station (Molecular Device). Furthermore, similar measurement was performed for CCK-8NS (Peptide Institute, Inc.) and CCK-4 (Peptide Institute, Inc.). 0.52 mg of CCK-8S (SEQ ID NO: 14) was dissolved in 4.5 mL of 1% NaHCO3 (Wako) to prepare a solution having 0.1 mM concentration. 0.53 mg of CCK-8NS was dissolved in 0.50 mL of dimethyl sulfoxide (DMSO, Sigma), and then 4.50 mL of redistilled water H2O was added to prepare a solution having 0.1 mM concentration. 0.54 mg of CCK-4 was dissolved in 0.46 mL of DMSO, 4.09 mL of redistilled water was added to prepare a solution having 0.2 mM concentration. […]

Regarding `CNc1ccc2oc(C[C@H]3O[C@@]4(CC[C@H]3C)O[C@H]([C@H](C)C(=O)c3ccc[nH]3)[C@H](C)C[C@H]4C)nc2c1C(=O)O` [A23187], the “Change in intracellular Ca2+ concentration (fluorescence intensity)” value (A23187 10 μM, positive control) is listed as “increased”.
As for “cholecystokinin octapeptide sulfated form [CCK-8S]”, under “peptide at final concentration 1 nM”, the “Change in intracellular Ca2+ concentration (fluorescence intensity)” value is “increased”.
